Assay results from patent US10053455B2, “Diazaspiroalkaneone-substituted oxazole derivatives as spleen tyrosine kinase inhibitors” (AB SCIENCE, priority 2014, dated 2018).
Where two headings read alike, the source gives them in different places.

What was measured:
SYK kinase = SYK kinase (Homo sapiens (Human), UniProt P43405); test: In vitro SYK inhibition assay (HTRF kinase assay); type: biochemical
Procedure: SYK kinase was purified as a full length protein in a baculovirus system near homogeneity. All kinase assays were performed with the Kinase TK (tyrosine kinase) HTRF (Homogeneous Time Resolved Fluorescence) assay developed by Cisbio international. […] Reactions were initiated upon introduction of the enzyme and terminated with the addition of one reaction volume (25 μl) of HTRF detection buffer. Plates were incubated for one hour at room temperature and the time resolved Fluorescence resonance energy transfer signal was measured in a Pherastar FS microplate reader (BMG Labtech).
(§1) Most of the kinases tested in this study were cloned, expressed and purified in the facilities of the inventors. They were expressed either as N-terminus hexahistidine-, hexahistidine-asparagine- or GST-tagged enzymes in a baculovirus or in a Colibacille expression system. Remaining enzymes (JAKs) were purchased from Millipore or Proqinase. For each enzyme, steady state kinetic parameters were determined and validated with known inhibitors.
(§2) The analysis of the effect of compounds on kinase activity was assessed with the HTRF® KinEASE assay (Cisbio International), an immuno-assay based on the quantification of the level of phosphorylation of a biotinylated peptide substrate using anti-phospho-specific antibody labeled with Europium (Eu^3+) cryptate. This assay comprises two steps: —an enzymatic step, during which the peptide substrate, the kinase, ATP, Mg^2+ and/or Mn^2+ are incubated with varying concentration of drug (from 0 to 10 μM); —a detection step, at the end of the reaction (stopped by addition of EDTA which chelates Mg^2+), the antibody anti-phospho peptide-Eu^3+ (emission 620 nm) and streptavidin XL-665 (emission 665 nm) are added to the reaction mix. After incubation, the obtained signal is proportional to the concentration of phosphorylated peptide in the sample. All measurements were performed on a BMG Labtech Pherastar FS apparatus. Results are expressed in delta fluorescence (DF) unit defined as follow DF %=[(ratio−ratio blank)/(ratio blank)]*100, where ratio=(665 nm/620 nm)*10^4. Each experiment was performed in duplicate and repeated two or three times.

Src = Src (Homo sapiens (Human), UniProt P12931); test: HTRF kinase assay, Src; type: biochemical; conditions: enzymatic determination
Chain of Src (P12931 whole entry, looked up, species assumed): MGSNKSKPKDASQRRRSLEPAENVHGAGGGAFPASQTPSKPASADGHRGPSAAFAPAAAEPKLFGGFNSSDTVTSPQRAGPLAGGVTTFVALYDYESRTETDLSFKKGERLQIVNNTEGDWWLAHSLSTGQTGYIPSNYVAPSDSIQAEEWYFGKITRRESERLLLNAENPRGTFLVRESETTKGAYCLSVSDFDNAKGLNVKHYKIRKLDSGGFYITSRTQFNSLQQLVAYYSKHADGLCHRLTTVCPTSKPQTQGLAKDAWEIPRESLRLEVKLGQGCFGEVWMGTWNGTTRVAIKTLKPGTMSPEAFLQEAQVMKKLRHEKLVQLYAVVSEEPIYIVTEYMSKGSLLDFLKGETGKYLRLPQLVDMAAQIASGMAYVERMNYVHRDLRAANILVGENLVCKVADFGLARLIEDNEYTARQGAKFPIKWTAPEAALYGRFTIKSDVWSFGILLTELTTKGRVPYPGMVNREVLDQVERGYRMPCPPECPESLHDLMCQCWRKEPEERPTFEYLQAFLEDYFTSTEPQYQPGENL
Procedure: as §1
as §2, with “After incubation, the obtained signal is proportional to the concentration of phosphorylated peptide in the sample. All measurements were performed on a BMG Labtech Pherastar FS apparatus.” left out, “Each experiment was performed in duplicate and repeated two or three times.” left out

[1] = Early bioavailability determination (plasma PK); type: in vivo, Sprague Dawley rats; conditions: rat; for AUC: read-out: AUC24
Procedure: Early screen was conducted to estimate plasma concentrations of test compounds obtained after oral or intravenous administration to Sprague Dawley rats. DMSO was used as vehicle for oral and intravenous administration. In short, 4 male Sprague Dawley rats around 5 weeks old were used. Drugs were administered PO (10 mg/kg) or IV (2 mg/kg). Blood samples were collected at defined time schedule and analysed using LC-MS/MS determination for PK parameters calculations.

HepG2 tumor cell line = test: Mitochondrial ToxGlo assay (ATP production and cytotoxicity); type: cell-based; conditions: HepG2, 20 μM, 2 hours
Procedure: Drug-induced mitochondrial toxicity was evaluated by monitoring oxygen consumption using a Clark oxygen electrode on mitochondria isolated from heart of healthy mouse (Mitologics S.A.S, France). Briefly, isolated mitochondria are placed at 37° C. in a sealed chamber that is exposed to the surface of a Clark oxygen electrode. The presence of oxygen caused the electrode to deliver a current to the oxygen monitor, which amplified the current and converted it to a voltage output that was directly proportional to the concentration of oxygen in the chamber. Drug-induced mitochondrial toxicity was also evaluated by monitoring mitochondrial ATP production using a cell-based assay (Mitochondrial ToxGlo™ assay, Promega Corporation (cat#G8000)). […] The test was performed on HepG2 tumor cell line grown in galactose medium in order to force the cancer cells to produce ATP via oxidative phosphorylation (crabtree effect). Cells were treated for 2 hours with 20 μM drug before analysis of ATP detection (Luminescent signal) and cytotoxicity (Fluorescent signal) as described by manufacturers using PHERAstar and POLARstar OMEGA microplate readers respectively (BMG Labteck Sari).

[2] = tested on: Salmonella typhimurium strain TA98; test: AMES mutagenic assay, TA98 strain
Procedure: (§3) Mutagenic activity of test compounds and their metabolites (produced by rat liver S9 fraction) was evaluated in the Salmonella typhimurium strains TA100 and TA98 according to the Ames assay (Toxicology in vitro, (2001), 15: 105-114). […] The results are expressed as a mutagenicity ratio in comparison to solvent controls.
(§4) The results are expressed as a ratio of the number of colonies over the number of colonies in the negative control (DMSO).

VEGFR1 = VEGFR1 (Homo sapiens (Human), UniProt P17948); test: HTRF kinase assay, VEGFR1; type: biochemical; conditions: enzymatic determination
Chain of VEGFR1 (P17948 27-1338, species assumed): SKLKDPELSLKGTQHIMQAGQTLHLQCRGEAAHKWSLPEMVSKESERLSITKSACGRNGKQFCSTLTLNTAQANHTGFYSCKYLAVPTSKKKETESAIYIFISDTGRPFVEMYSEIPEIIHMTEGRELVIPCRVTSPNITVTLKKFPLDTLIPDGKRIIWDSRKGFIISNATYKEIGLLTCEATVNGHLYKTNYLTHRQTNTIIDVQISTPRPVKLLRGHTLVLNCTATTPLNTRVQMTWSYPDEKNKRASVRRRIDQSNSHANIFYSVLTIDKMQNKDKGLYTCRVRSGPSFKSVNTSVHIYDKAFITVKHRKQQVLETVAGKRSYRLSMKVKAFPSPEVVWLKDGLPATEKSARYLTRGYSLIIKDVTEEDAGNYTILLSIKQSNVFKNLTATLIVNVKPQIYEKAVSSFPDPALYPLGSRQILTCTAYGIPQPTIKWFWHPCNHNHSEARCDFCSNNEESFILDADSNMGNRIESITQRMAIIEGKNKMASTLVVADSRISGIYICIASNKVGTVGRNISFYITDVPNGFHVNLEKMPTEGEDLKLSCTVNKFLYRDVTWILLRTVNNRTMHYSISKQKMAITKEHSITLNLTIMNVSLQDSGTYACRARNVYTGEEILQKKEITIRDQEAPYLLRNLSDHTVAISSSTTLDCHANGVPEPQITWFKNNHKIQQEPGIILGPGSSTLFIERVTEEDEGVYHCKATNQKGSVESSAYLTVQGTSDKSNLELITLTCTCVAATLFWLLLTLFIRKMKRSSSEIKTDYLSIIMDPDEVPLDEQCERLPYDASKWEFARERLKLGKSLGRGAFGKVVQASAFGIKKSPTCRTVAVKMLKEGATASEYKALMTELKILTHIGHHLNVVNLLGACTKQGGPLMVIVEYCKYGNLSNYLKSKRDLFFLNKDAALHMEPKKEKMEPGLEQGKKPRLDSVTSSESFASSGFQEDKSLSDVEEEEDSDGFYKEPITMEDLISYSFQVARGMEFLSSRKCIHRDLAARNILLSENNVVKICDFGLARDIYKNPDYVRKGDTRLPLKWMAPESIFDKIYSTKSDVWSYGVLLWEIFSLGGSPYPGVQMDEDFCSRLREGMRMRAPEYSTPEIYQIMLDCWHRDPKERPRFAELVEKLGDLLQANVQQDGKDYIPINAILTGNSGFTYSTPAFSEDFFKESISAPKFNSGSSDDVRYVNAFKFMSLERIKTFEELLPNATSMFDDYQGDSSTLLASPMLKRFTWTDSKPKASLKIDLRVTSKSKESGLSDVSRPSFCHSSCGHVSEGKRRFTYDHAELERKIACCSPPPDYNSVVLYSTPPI
Procedure: as §1
as §2, with “After incubation, the obtained signal is proportional to the concentration of phosphorylated peptide in the sample. All measurements were performed on a BMG Labtech Pherastar FS apparatus.” left out, “Each experiment was performed in duplicate and repeated two or three times.” left out

[3] = tested on: Salmonella typhimurium strain TA100
Procedure: as §3, §4

[4] = male, Sprague Dawley, plasma, IV, 2 mg/kg, mean
[5] = male, Sprague Dawley, plasma, PO, 10 mg/kg, mean
[6] = TA98, absence of S-9, 0.5 μg per well
[7] = TA98, absence of S-9, 1.4 μg per well
[8] = TA98, absence of S-9, 4.1 μg per well
[9] = TA98, absence of S-9, 12.3 μg per well
[10] = TA98, absence of S-9, 37 μg per well
[11] = TA98, absence of S-9, 111.1 μg per well
[12] = TA98, absence of S-9, 333.3 μg per well
[13] = TA98, absence of S-9, 1000 μg per well
[14] = TA98, presence of S-9, 0.5 μg per well
[15] = TA98, presence of S-9, 1.4 μg per well
[16] = TA98, presence of S-9, 4.1 μg per well
[17] = TA98, presence of S-9, 12.3 μg per well
[18] = TA98, presence of S-9, 37 μg per well
[19] = TA98, presence of S-9, 111.1 μg per well
[20] = TA98, presence of S-9, 333.3 μg per well
[21] = TA98, presence of S-9, 1000 μg per well

Cc1ccnc(Nc2cccc(-c3cnc(N4CCNC(=O)C45CC5)o3)c2)n1 [Compound 001, 4-{5-[3-(4-Methyl-pyrimidin-2-ylamino)-phenyl]-oxazol-2-yl}-4,7-diaza-spiro[2.5]octan-8-one]
IC50 (SYK kinase; enzymatic determination, read-out: Kinase activity profile IC50 Syk): 41 nM | IC50 (SYK kinase; read-out: Syk (IC50)): < 500 nM | IC50 (Src): 2600 nM | Cl ([1]; PO, 10 mg/kg, mean): 17 mL/min/kg | Vd ([1]; PO, 10 mg/kg, mean): 2.9 L/kg | Cmax [1, 4]: 869 ng/mL | Tmax [1, 4]: 0.083 h | clearance [1, 4]: 15 mL/min/kg | half-life [1, 4]: 0.6 h | AUC [1, 4]: 1060 ng·h/mL | Vd ([1]; male, Sprague Dawley, plasma, IV, 2 mg/kg, mean, read-out: Vd): 0.9 L/kg | bioavailability ([1]; male, Sprague Dawley, plasma, PO 10 mg/kg vs IV 2 mg/kg, read-out: F24 (absolute bioavailability)): 97.5% | Cmax [1, 5]: 122 ng/mL | Tmax [1, 5]: 3 h | half-life [1, 5]: 2.1 h | AUC [1, 5]: 1030 ng·h/mL | ATP production relative to DMSO (100%) Mito ToxGlo (HepG2 tumor cell line): 104% | Cytotoxicity relative to DMSO (0%) Mito ToxGlo (HepG2 tumor cell line): 11% | ATP production relative to DMSO (100%) Mito ToxGlo (HepG2 tumor cell line; listed as compound 001): 104% | Cytotoxicity relative to DMSO (0%) Mito ToxGlo (HepG2 tumor cell line; listed as compound 001): 11% | Mean revertant colony counts [2, 6]: 7.3 | Ratio treated/solvent [2, 6]: 1.7 | Mean revertant colony counts [2, 7]: 4.3 | Ratio treated/solvent [2, 7]: 1.0 | Mean revertant colony counts [2, 8]: 6.3 | Ratio treated/solvent [2, 8]: 1.5 | Mean revertant colony counts [2, 9]: 5.3 | Ratio treated/solvent [2, 9]: 1.2 | Mean revertant colony counts [2, 10]: 8.3 | Ratio treated/solvent [2, 10]: 1.9 | Mean revertant colony counts [2, 11]: 6.3 | Ratio treated/solvent [2, 11]: 1.5 | Mean revertant colony counts [2, 12]: 4.3 | Ratio treated/solvent [2, 12]: 1.0 | Mean revertant colony counts [2, 13]: 3.7 | Ratio treated/solvent [2, 13]: 0.8 | Mean revertant colony counts [2, 14]: 10.3 | Ratio treated/solvent [2, 14]: 3.9 | Mean revertant colony counts [2, 15]: 7.3 | Ratio treated/solvent [2, 15]: 2.8 | Mean revertant colony counts [2, 16]: 9.3 | Ratio treated/solvent [2, 16]: 3.5 | Mean revertant colony counts [2, 17]: 6.7 | Ratio treated/solvent [2, 17]: 2.5 | Mean revertant colony counts [2, 18]: 5.7 | Ratio treated/solvent [2, 18]: 2.1 | Mean revertant colony counts [2, 19]: 7.3 | Ratio treated/solvent [2, 19]: 2.8 | Mean revertant colony counts [2, 20]: 6.3 | Ratio treated/solvent [2, 20]: 2.4 | Mean revertant colony counts [2, 21]: 5.0 | Ratio treated/solvent [2, 21]: 1.9 | mutagenic activity ([2]; TA98, with or without liver metabolic activation system (S9 mix)): did not show any mutagenic activity | IC50 (VEGFR1): 7500 nM | mutagenic activity [3]: did not show any mutagenic activity
